The values that follow come from patent US20080200405A1, “Drug Resistance Reversal In Neoplastic Disease” (priority 2007, published 2008).

The test system of data set [1] is Doxorubicin resistant SaOS2 cells. In words: Cancer cell viability (MTT) in the presence or absence of doxorubicin. Format: cell-based, human. As to conditions: compound 50 ug/mL, 3 days.
For the next data set, the system named is TNFα. Nature of the data set: Measurement of LPS Induced-TNFα in THP-1 Cells. Format: cell-based, human. To be noted: Homo sapiens, THP-1; read-out: TNFalpha IC50. The procedure:
The lipid peroxidation assay method of Ohkawa, H.; Ohishi, N.; Yaki, K. Anal. Biochem. 1979, 95, 351 was used to evaluate […]. […] […] Cells were collected and spun at 1500 g for 10 minutes. Supernatant was collected and analyzed for TNFα.
Mean Percent Inhibition of TNF-alpha by compounds of the present invention is set forth in Table B. TNF-alpha inhibition data is set forth in Table B-1. OT-551 was used in both native form and in the form of nanoparticles. […] Other nitrogenous heterocyclic species of the invention are expected to show similar improvement in efficacy when disposed in nanoparticulate form.

SMILES strings stand for the structures. Where a name gives a salt, the structure may show the parent alone. Where only a bound is given, the exact number is not on record here.

For `CC1(C)C(CO)=C(c2ccc(F)cc2)C(C)(C)N1O.Cl` [Compound 59, (4-(4-fluorophenyl)-1-hydroxy-2,5-dihydro-2,2,5,5-tetramethyl-1H-pyrrol-3-yl)methanol hydrochloride], the “Mean OD (×10^−3), MTT viability” value in data set [1] (Dox. 10^−6 M (+)) was 352.00 ×10^−3; in data set [1] (absence of Dox. (−)) it was 1105.00 ×10^−3.

For `CC1(C)CC(=O)C(C)(C)N1O.Cl` [Compound 37, 1-hydroxy-2,2,5,5-tetramethylpyrrolidin-3-one hydrogen chloride], the IC50 with TNFα was at least 100 µM. Moreover, the “Mean OD (×10^−3), MTT viability” value in data set [1] (Dox. 10^−6 M (+)) is 366.25 ×10^−3; in data set [1] (absence of Dox. (−)), 1329.75 ×10^−3.

For the compound `CN1CCN(c2nsnc2OC2CC(C)(C)N(O)C(C)(C)C2)CC1.Cl.Cl` [Compound 52, dihydrochloride], the IC50 with TNFα stood at 3 µM.

Take `CC1(C)CC(Oc2nsnc2OC2CC(C)(C)N(O)C(C)(C)C2)CC(C)(C)N1O` (as salt: chloride) [Compound 14, 1-hydroxyl-4-(4-(2,2,6,6-tetramethylpiperidin-1-hydroxyl-4-yloxy)-1,2,5-thiadiazol-3-yloxy)-2,2,6,6-tetramethylpiperidine bis-hydrogen chloride]: the melting point is 216.2 °C (dec.).

As for `CC1(C)CC(NS(C)(=O)=O)CC(C)(C)N1O` (as salt: salt) [Compound 10, 1-hydroxy-4-methanesulfonamido-2,2,6,6-tetramethylpiperidine], the melting point was 178.3 °C (dec.).

Regarding `CC1(C)CC(NC(=O)C2CC2)CC(C)(C)N1O.Cl` [Compound 31, N-(1-hydroxy-2,2,6,6-tetramethylpiperidin-4-yl)cyclopropanecarboxamide hydrogen chloride], the IC50 in the data set with TNFα came out at 38.2 µM. The “Mean OD (×10^−3), MTT viability” value in data set [1] (Dox. 10^−6 M (+)) is listed as 322.25 ×10^−3; in data set [1] (absence of Dox. (−)), 1175.25 ×10^−3.

On to `CC1(C)CC(Nc2nc3ccccc3s2)CC(C)(C)N1O.Cl`, for which the melting point is 183 °C (dec.).

On to `CC1(C)C=C(COc2ccccc2N2CCOCC2)C(C)(C)N1O.Cl`, for which the melting point is 155.7 °C (dec.).

Take `COc1ccc2nc(NC3CC(C)(C)N(O)C(C)(C)C3)sc2c1.Cl`: the melting point is 220 °C (dec.).

Take `Cc1c(C)c2c(c(C)c1O)CCC(C)(C(=O)NC1CC(C)(C)N(O)C(C)(C)C1)O2.Cl` (centres unmarked): the melting point is 174.9 °C (dec.).

For `CC1(C)CC(Oc2nc3ccccc3s2)CC(C)(C)N1O.Cl`, the melting point was 160 °C (dec.).

Regarding `CC1(C)CC(Oc2nsnc2N2CCOCC2)C(C)(C)N1O.Cl` (centres unmarked) [Compound 32, 4-(4-(1-hydroxy-2,2,5,5-tetramethylpyrrolidin-3-yloxy)-1,2,5-thiadiazol-3-yl)morpholine hydrogen chloride], the IC50 in the data set on TNFα was at least 100 µM. The entries for the “Mean OD (×10^−3), MTT viability” value in data set [1] (Dox. 10^−6 M (+)) and in data set [1] (absence of Dox. (−)) were 231.50 ×10^−3 and 985.67 ×10^−3, respectively.

In the case of `CC1(C)c2ccc(N3CCOCC3)cc2C(C)(C)N1O` [Compound 66, 2-hydroxy-1,1,3,3-tetramethyl-5-morpholinoisoindoline hydrochloride], the IC50 in the data set with TNFα is at least 100 µM.

`CC(C)c1nsnc1OCC1=CC(C)(C)N(O)C1(C)C.Cl` [Compound 51]: the melting point was 155.7 °C. The “Mean OD (×10^−3), MTT viability” value in data set [1] (Dox. 10^−6 M (+)) was 71.00 ×10^−3. The “Mean OD (×10^−3), MTT viability” value in data set [1] (absence of Dox. (−)) is given as 1208.25 ×10^−3.

For the compound `COc1cc(COC2CC(C)(C)N(O)C(C)(C)C2)cc(OC)c1OC.Cl` [Compound 48, 1-Hydroxyl-4-(3,4,5-trimethoxybenzyloxy)-2,2,6,6-tetramethylpiperidine hydrochloride], the “Mean OD (×10^−3), MTT viability” value in data set [1] (Dox. 10^−6 M (+)) is 50.67 ×10^−3; in data set [1] (absence of Dox. (−)), 1118.00 ×10^−3.

With `CC1(C)CC(CO)C(C)(C)N1O.Cl` (centres unmarked) [Compound 33, 1-hydroxy-2,2,5,5-tetramethylpyrrolidin-3-yl)methanol hydrogen chloride], the IC50 in the data set with TNFα was 55.7 µM.

On to `CC1(C)C=C(c2ccc(F)cc2)CC(C)(C)N1O` [Compound 62, hydrochloride], for which, in the data set with TNFα, the concentration for half-maximal inhibition (IC50) is at least 100 µM. For the same compound, the results for the “Mean OD (×10^−3), MTT viability” value in data set [1] (Dox. 10^−6 M (+)) and in data set [1] (absence of Dox. (−)) were 40.25 ×10^−3 and 184.75 ×10^−3, respectively.

Regarding `CC1(C)C=C(CC2CNCCO2)C(C)(C)N1O.Cl.Cl` (centres unmarked) [Compound 36, ((1-hydroxy-2,5-dihydro-2,2,5,5-tetramethyl-1H-pyrrol-3-yl)methyl)morpholine bis-hydrogen chloride], the IC50 in the data set with TNFα turned out to be 4 µM. The “Mean OD (×10^−3), MTT viability” value in data set [1] (Dox. 10^−6 M (+)) was 297.00 ×10^−3; in data set [1] (absence of Dox. (−)), 1110.75 ×10^−3.

Turning to `CC1(C)CC(Oc2nsnc2C#N)CC(C)(C)N1O` (as salt: hydrochloride) [Compound 45], the melting point is 179.2 °C (dec.).

As to `CC1(C)CC(Oc2nsnc2N2CCN(C(=O)c3ccco3)CC2)CC(C)(C)N1O.Cl`, the melting point is 198.1 °C (dec.).

`CC1(C)CC(NC(=O)CCN2CCOCC2)CC(C)(C)N1O.Cl` [Compound 26, N-(1-hydroxy-2,2,6,6-tetramethylpiperidin-4-yl)-3-morpholinopropanamide hydrogen chloride]: the IC50 in the data set on TNFα is at least 100 µM. The “Mean OD (×10^−3), MTT viability” value is given as 261.50 ×10^−3 in data set [1] (Dox. 10^−6 M (+)) and 1056.33 ×10^−3 in data set [1] (absence of Dox. (−)).

As to `CC1(C)CC(O)C(C)(C)N1O` (centres unmarked) (as salt: salt) [Compound 7, 2,2,5,5-Tetramethyl-pyrrolidine-1,3-diol], the melting point was 155.5 °C (dec.).

Take `CC1(C)CC(Oc2nsnc2N2CCN(c3ccccc3)CC2)CC(C)(C)N1O.Cl.Cl` [Compound 53, 4-(4-phenylpiperazin-1-yl)-3-[(2,2,6,6-tetramethyl-1-hydroxypiperidinyl)-4-oxy]-1,2,5-thiadiazole hydrochloride]: the “Mean OD (×10^−3), MTT viability” value is on record as 170.00 ×10^−3 in data set [1] (Dox. 10^−6 M (+)) and 1333.75 ×10^−3 in data set [1] (absence of Dox. (−)).

For `CC1(C)CC(c2nn[nH]n2)CC(C)(C)N1O.Cl` [Compound 30, 1-hydroxy-2,2,6,6-tetramethyl-4-(2H-tetrazol-5-yl)piperidine hydrogen chloride], the IC50 with TNFα was at least 100 µM. Also, the “Mean OD (×10^−3), MTT viability” value in data set [1] (Dox. 10^−6 M (+)) is 310.00 ×10^−3; in data set [1] (absence of Dox. (−)), 1301.25 ×10^−3.

`CC1(C)c2ccc(Br)cc2C(C)(C)N1O.Cl`: the melting point was 214.1 °C.

In the case of `CC1(C)CC(Oc2nsnc2C(=O)O)CC(C)(C)N1O.Cl`, the melting point was 209.1 °C (dec.).

In the case of `CN1CCN(c2nsnc2OC2CC(C)(C)N(O)C(C)(C)C2)CC1.Cl.Cl` [Compound 52], the “Mean OD (×10^−3), MTT viability” value in data set [1] (Dox. 10^−6 M (+)) is 195.00 ×10^−3; in data set [1] (absence of Dox. (−)) it was 1186.33 ×10^−3.

As to `CC1(C)CC(CO)CC(C)(C)N1O.Cl` [Compound 34, (1-hydroxy-2,2,6,6-tetramethylpiperidin-4-yl)methanol hydrogen chloride], the IC50 in the data set with TNFα is 2.4 µM. Moreover, the “Mean OD (×10^−3), MTT viability” value in data set [1] (Dox. 10^−6 M (+)) is recorded as 302.75 ×10^−3; in data set [1] (absence of Dox. (−)) it was 1168.25 ×10^−3.

In the case of `CC1(C)CC(NC(=O)CCCCC2CCSS2)CC(C)(C)N1O.Cl` (centres unmarked) [Compound 49, 5-(1,2-dithialan-3-yl)-N-(1-hydroxy-2,2,6,6-tetramethylpiperidin-4-yl)pentanamide hydrochloride], the melting point was 164.7 °C (dec.). Also, the “Mean OD (×10^−3), MTT viability” value in data set [1] (Dox. 10^−6 M (+)) is 195.00 ×10^−3. Besides, in data set [1] (absence of Dox. (−)), the “Mean OD (×10^−3), MTT viability” value is 1330.25 ×10^−3.

As to `COc1cc2c(cc1OC)CN(c1nsnc1OC1CC(C)(C)N(O)C(C)(C)C1)CC2.Cl`, the melting point is 166.9 °C (dec.).

For the compound `CC1(C)C=C(CO)C(C)(C)N1O` (as salt: chloride) [Compound 8, 2,5-dihydro-2,2,5,5-tetramethyl-1-hydroxyl-1H-pyrrol-3-yl)methanol hydrogen chloride], the melting point is 141.9 °C (dec.).

With `CC1(C)CC(=CC(=O)N2CCN(c3ccccc3)CC2)CC(C)(C)N1O` [Compound 56, hydrochloride], in the data set on TNFα, the half-inhibitory concentration (IC50) came to 12 µM. The “Mean OD (×10^−3), MTT viability” value in data set [1] (Dox. 10^−6 M (+)) is listed as 308.75 ×10^−3; in data set [1] (absence of Dox. (−)), 1153.00 ×10^−3.

For `CC1(C)CC(Oc2nsnc2N2CCSCC2)CC(C)(C)N1O.Cl` [Compound 55, 4-(4-(1-hydroxy-2,2,6,6-tetramethylpiperidin-4-yloxy)-1,2,5-thiadiazol-3-yl)thiomorpholine hydrochloride], the melting point is 218 °C (dec.). Further, the “Mean OD (×10^−3), MTT viability” value in data set [1] (Dox. 10^−6 M (+)) is given as 285.75 ×10^−3. The “Mean OD (×10^−3), MTT viability” value in data set [1] (absence of Dox. (−)) is 1037.25 ×10^−3.

As to `CC(C)(C)OC(=O)c1nsnc1OC1CC(C)(C)N(O)C(C)(C)C1.Cl`, the melting point is 197 °C (dec.).

With `CC1(C)C=C(CO)CC(C)(C)N1O.Cl` [Compound 25, 1-hydroxy-1,2,3,6-tetrahydro-2,2,6,6-tetramethylpyridin-4-yl)methanol hydrogen chloride], the IC50 in the data set with TNFα came out at 30.9 µM.

The compound `COc1cc(CNC2CC(C)(C)N(O)C(C)(C)C2)cc(OC)c1OC.Cl.Cl` [Compound 58, N-(3,4,5-trimethoxybenzyl)-1-hydroxy-2,2,6,6-tetramethylpiperidin-4-amine dihydrochloride] returned a melting point of 181 °C. In addition, the “Mean OD (×10^−3), MTT viability” value in data set [1] (Dox. 10^−6 M (+)) is 291.50 ×10^−3. The “Mean OD (×10^−3), MTT viability” value in data set [1] (absence of Dox. (−)) is reported as 1207.00 ×10^−3.

On to `COc1cc(C2=CC(C)(C)N(O)C(C)(C)C2)cc(OC)c1OC.Cl` [Compound 50, 1-Hydroxy-2,3,6-trihydro-4-(3,4,5-trimethoxyphenyl)-2,2,6,6-tetramethylpiperidine hydrochloride], for which the “Mean OD (×10^−3), MTT viability” value in data set [1] (Dox. 10^−6 M (+)) is on record as 54.50 ×10^−3; in data set [1] (absence of Dox. (−)) it was 1226.33 ×10^−3.
